Structures are written as SMILES. Where a name gives a salt, the structure may show the parent alone.

The values below come from patent publication US7468369B2, “Sulfonyl pyrrolidines, method for producing the same and their use as drugs” (Sanofi-Aventis, priority 2005, dated 2008).

The first assay concerns human ABCA1 promoter. Kind of assay: ABCA1 promoter test (luciferase reporter in stably transfected THP1 cell line). In kind it is cell-based. To be noted: ABCA1 reporter cell line (THP1, PMA-differentiated), 24 h incubation, luciferase chemiluminescence; read-out: E50 ABCA1. The protocol:
The potency of substances which activate expression of the human ABCA1 gene via its promoter is analyzed by using a stably transfected THP1 cell line (human monocyte cell line) which is referred to herein as ABCA1 reporter cell line. It contains a fragment, 3.2 kb in size and stably integrated into the genome, of the human ABCA1 promoter in front of a luciferase reporter element. Expression of the luciferase reporter gene is only low without addition of an ABCA1 expression activator. The substances stimulating ABCA1 expression bring about, via activation of the ABCA1 promoter, an enhanced expression of the luciferase reporter gene. The luciferase which is formed can be detected via an appropriate substrate by means of chemiluminescence.
Construction of the Cell Line
The ABCA1 reporter line was prepared as follows: firstly the neomycin resistance gene (Acc. No.: AJ000156) was introduced into the luciferase reporter plasmid pLG3basic (#1751, Promega) 3′ below the luciferase reporter element. Subsequently, an ABCA1 promoter fragment, 3.2 kb in size and amplified from human genomic DNA (#6550-1, Clontech) by the polymerase chain reaction, was cloned in 5′ above the luciferase reporter element. The reporter plasmid produced in this way was called pGL3BN-ABCA1P. Luciferase expression in this plasmid is controlled by the ABCA1 promoter. Cloning and sequencing of the construct took place in analogy to the description in Sambrook J et al. (Molecular cloning, Cold Spring Harbor Laboratory Press, 1989). For stable transfection into THP1 cells, firstly pGL3BN-ABCA1P was linearized with a restriction endonuclease and then introduced into the THP1 cells as stated in Ausubel, F. M. et al. (Current protocols in molecular biology, Vol. 1-3, John Wiley & Sons, Inc., 1995).
The activity of ABCA1 expression activators is determined in a 3-day test which is described below:
The ABCA1 reporter cell line comprises suspension cells. These are cultured until the concentration is 0.5×10^6 cells/ml in RPMI medium (#52400-025, Invitrogen) which is mixed with the following additions: 10% FCS (fetal calf serum; #16000-044, invitrogen), 0.5 mg/ml Geneticin (#10131-019, invitrogen) and 1% penicillin-streptomycin solution (#15140-122, invitrogen). The culturing takes place in standard cell culture flasks (#353112, Becton Dickinson) in a cell culture incubator at 37° C. in the presence of 5% CO2.
For the ABCA1 promoter test, the suspension cells are centrifuged at 1200 rpm in 50 ml tubes. The supernatant is aspirated off, and the pellet is resuspended in 15 ml of RPMI medium and counted in a cell counter. After dilution to 175 000 cells/ml, 0.1 μg/ml PMA (phorbol 12-myristate 13-acetate, #8139-5MG, Sigma) is added in order to induce differentiation of the monocytic THP1 suspension cells into adherent macrophages. 35 000 cells in each well are seeded in a 96-well microtiter plate with clear plastic base (#3610, Corning Costar). The plates are incubated in a cell culture incubator at 37° C. and 5% CO2 for 24 h.
The ABCA1 expression activators to be tested are dissolved in a concentration of 10 mM in DMSO. This stock solution is diluted in the RPMI medium (mixed with 0.1 μg/ml PMA) described above. Test substances are tested in 11 different concentrations in the range from […] to 330 pM. The medium of the ABCA1 reporter cell line seeded on day 1 is completely removed by aspiration and the diluted test substances are immediately added to the cells. The dilution and addition of the substances takes place with a pipetting robot (Beckman FX). The final volume of the test substances diluted in medium is 100 μl per well of a 96-well microtiter plate. The DMSO concentration in the test is less than 0.1% v/v in order to avoid cytotoxic effects of the solvent.
The test plates are incubated in an incubator at 37° C. and 5% CO2 for 24 h.
The ABCA1 reporter cells treated with the test substances are removed from the incubator and the medium is aspirated off. […]
For the compound `COc1cccc(S(=O)(=O)N2CC(C(=O)N3CCN(c4cc(C)ccc4C)CC3)C(c3ccsc3)C2)c1` (stereo not drawn) [Example 110, [4-(2,5-Dimethylphenyl)piperazin-1-yl]-[1-(3-methoxybenzenesulfonyl)-3,4-trans-4-thiophen-3-ylpyrrolidin-3-yl]methanone trifluoroacetate], the EC50 came to 914 nM.

Still in this assay, the particulars now being: Homo sapiens, THP-1; ABCA1 reporter cell line (THP1, PMA-differentiated), 24 h incubation, luciferase chemiluminescence; read-out: E50 ABCA1.
As for `Cc1cccc(S(=O)(=O)N2C[C@@H](C(=O)N3CCN(c4cc(Cl)ccc4Cl)CC3)[C@H](c3ccccc3)C2)c1` [Example 74, [4-(2,5-Dichlorophenyl)piperazin-1-yl]-[3,4-trans-4-phenyl-1-(toluene-3-sulfonyl)pyrrolidin-3-yl]methanone trifluoroacetate], the EC50 is 340 nM.

With `Cc1ccc(C)c(N2CCN(C(=O)[C@@H]3CN(S(=O)(=O)C(C)C)C[C@H]3c3ccccc3)CC2)c1` [Example 70, [4-(2,5-Dimethylphenyl)piperazin-1-yl]-[3,4-trans-4-phenyl-1-(propan-2-sulfonyl)pyrrolidin-3-yl]methanone trifluoroacetate], the EC50 worked out at 915 nM.

On to `Cc1ccc(C)c(N2CCN(C(=O)[C@@H]3CN(S(=O)(=O)c4cc(Cl)c(Cl)s4)C[C@H]3c3ccccc3)CC2)c1` (racemic) [Example 49, [1-(4,5-Dichlorothiophene-2-sulfonyl)-3,4-trans-4-phenylpyrrolidin-3-yl]-[4-(2,5-dimethylphenyl)piperazin-1-yl]methanone], for which the EC50 worked out at 1950 nM.

Take `COc1cccc(S(=O)(=O)N2C[C@@H](C(=O)N3CCN(c4cc(C)ccc4C)CC3)[C@H](c3cccc(C)c3)C2)c1` [Example 102, [4-(2,5-Dimethylphenyl)piperazin-1-yl]-[1-(3-methoxybenzenesulfonyl)-3,4-trans-4-m-tolylpyrrolidin-3-yl]methanone trifluoroacetate]: the EC50 was 1050 nM.

On to `Cc1ccc(C)c(N2CCN(C(=O)[C@@H]3CN(S(=O)(=O)c4c(C)noc4C)C[C@H]3C(C)C)CC2)c1` [Example 95, [1-(3,5-Dimethyl isoxazole-4-sulfonyl)-3,4-trans-4-isopropylpyrrolidin-3-yl]-[4-(2,5-dimethylphenyl)piperazin-1-yl]methanone trifluoroacetate], for which the EC50 stood at 4590 nM.

With `COC(=O)c1cc(C)c(S(=O)(=O)N2C[C@@H](C(=O)N3CCN(c4cc(C)ccc4C)CC3)[C@H](c3ccccc3)C2)s1` (racemic) [Example 50, Methyl 5-{3,4-trans-3-[4-(2,5-dimethylphenyl)piperazine-1-carbonyl]-4-phenylpyrrolidine-1-sulfonyl}-4-methylthiophene-2-carboxylate], the EC50 is 7340 nM.

`Cc1ccc(C)c(N2CCN(C(=O)[C@@H]3CN(S(=O)(=O)c4c(C)noc4C)C[C@H]3c3ccccc3)CC2)c1` (racemic) [Example 71, [1-(3,5-Dimethylisoxazole-4-sulfonyl)-3,4-trans-4-phenylpyrrolidin-3-yl]-[4-(2,5-dimethylphenyl)piperazin-1-yl]methanone]: the EC50 came out at 381 nM.

For the compound `COc1cccc(S(=O)(=O)N2C[C@@H](C(=O)N3CCN(c4cc(C)ccc4C)CC3)[C@H](c3c(C)noc3C)C2)c1` [Example 104, [3,4-trans-4-(3,5-Dimethylisoxazol-4-yl)-1-(3-methoxybenzenesulfonyl)-pyrrolidin-3-yl]-[4-(2,5-dimethylphenyl)piperazin-1-yl]methanone trifluoroacetate], the EC50 came to 6270 nM.

Turning to `COc1ccc(S(=O)(=O)N2C[C@@H](C(=O)N3CCN(c4cc(OC)ccc4OC)CC3)[C@H](c3ccccc3)C2)cc1` [Example 79, [4-(2,5-Dimethoxyphenyl)piperazin-1-yl]-[1-(4-methoxybenzenesulfonyl)-3,4-trans-4-phenylpyrrolidin-3-yl]methanone trifluoroacetate], the EC50 was determined as 1580 nM.

`O=C([C@@H]1CN(S(=O)(=O)c2cccnc2)C[C@H]1c1ccccc1)N1CCN(c2cc(Cl)ccc2Cl)CC1` [Example 73, [4-(2,5-Dichlorophenyl)piperazin-1-yl]-[3,4-trans-4-phenyl-1-(pyridine-3-sulfonyl)pyrrolidin-3-yl]methanone trifluoroacetate]: the EC50 was determined as 407 nM.

`Cc1ccc(N2CCN(C(=O)[C@@H]3CN(S(=O)(=O)c4cc(Cl)c(Cl)s4)C[C@H]3c3ccccc3)CC2)cc1C` (racemic) [Example 45]: the EC50 amounted to 4620 nM.

Consider `Cc1ccc(N2CCN(C(=O)[C@@H]3CN(S(=O)(=O)c4ccc(Cl)s4)C[C@H]3c3ccccc3)CC2)c(C)c1` (racemic) [Example 38, [1-(5-Chlorothiophene-2-sulfonyl)-3,4-trans-4-phenylpyrrolidin-3-yl]-[4-(2,4-dimethylphenyl)piperazin-1-yl]methanone], for which the EC50 was 2660 nM.

Take `O=C([C@@H]1CN(S(=O)(=O)c2ccc(Cl)s2)C[C@H]1c1ccccc1)N1CCN(c2cccc(C(F)(F)F)c2)CC1` (racemic) [Example 32, [1-(5-Chlorothiophene-2-sulfonyl)-3,4-trans-4-phenylpyrrolidin-3-yl]-[4-(3-trifluoromethylphenyl)piperazin-1-yl]methanone]: the EC50 is 16200 nM.

Regarding `Cc1ccc(C)c(N2CCN(C(=O)[C@@H]3CN(S(=O)(=O)c4c(C)noc4C)C[C@H]3c3ccccc3C)CC2)c1` [Example 98, [1-(3,5-Dimethylisoxazole-4-sulfonyl)-3,4-trans-4-o-tolylpyrrolidin-3-yl]-[4-(2,5-dimethylphenyl)piperazin-1-yl]methanone trifluoroacetate], the EC50 stood at 401 nM.

For the compound `Cc1ccc(C)c(N2CCN(C(=O)[C@@H]3CN(S(=O)(=O)c4c(C)noc4C)C[C@H]3c3cccc4c3OCO4)CC2)c1` [Example 108, [3,4-trans-4-Benzo[1,3]dioxol-4-yl-1-(3,5-dimethylisoxazole-4-sulfonyl)-pyrrolidin-3-yl]-[4-(2,5-dimethylphenyl)piperazin-1-yl]methanone trifluoroacetate], the EC50 came to 585 nM.

As to `CC(=O)c1ccc(N2CCN(C(=O)[C@@H]3CN(S(=O)(=O)c4cccs4)C[C@H]3c3ccccc3)CC2)cc1` (racemic) [Example 7, 1-(4-{4-[3,4-trans-4-Phenyl-1-(thiophene-2-sulfonyl)pyrrolidine-3-carbonyl]-piperazin-1-yl}phenyl)ethanone], the EC50 stood at 13200 nM.

For `O=C([C@@H]1CN(S(=O)(=O)c2cccs2)C[C@H]1c1ccccc1)N1CCN(c2cc(Cl)ccc2Cl)CC1` [Example 66, [4-(2,5-Dichlorophenyl)piperazin-1-yl]-[3,4-trans-4-phenyl-1-(thiophene-2-sulfonyl)pyrrolidin-3-yl]methanone trifluoroacetate], the EC50 is 432 nM.

In the case of `COc1ccc(N2CCN(C(=O)[C@@H]3CN(S(=O)(=O)c4ccc(Cl)s4)C[C@H]3c3ccccc3)CC2)cc1` (racemic) [Example 60, [1-(5-Chlorothiophene-2-sulfonyl)-3,4-trans-4-phenylpyrrolidin-3-yl]-[4-(4-methoxyphenyl)piperazin-1-yl]methanone], the EC50 was 6680 nM.

For the compound `COc1cccc(S(=O)(=O)N2C[C@@H](C(=O)N3CCN(c4cc(C)ccc4C)CC3)[C@H](c3ccccc3C)C2)c1` [Example 99, [4-(2,5-Dimethylphenyl)piperazin-1-yl]-[1-(3-methoxybenzenesulfonyl)-3,4-trans-4-o-tolylpyrrolidin-3-yl]methanone trifluoroacetate], the EC50 was determined as 707 nM.
